What was measured:
HDAC 3 = target: T1, HDAC 3 (Homo sapiens, UniProt O15379); assay: Enzyme activity detection of histone deacetylase 3 (fluorogenic substrate deacetylation); type: biochemical; conditions: 0.16 ng/μL HDAC 3, 10 μM substrate; IC50 class
T1 construct: purchased BPS Bioscience #50003
From the text: During the deacetylation detection of a substrate, the HDAC inhibition activity of the compound of the present invention was detected.
B: Enzyme Activity Detection of Histone Deacetylase 3 (#50003, BPS Bioscience)
Acetyl on the substrate was removed by the HDAC 3, so that the substrate was activated, and the developing liquid added subsequently could act on the substrate to release the fluorescent group. The size of the fluorescence signal reflected the activity of the HDAC 3. The IC50 detection method for this enzyme was disclosed in Chuping Xu, Elisabetta Soragni Improved Histone Deacetylase Inhibitors as Therapeutics for the Neurdegenerative Disease Friedreich's Ataxia: A New Synthetic Route. The total reaction system (100 μL/well) contained 0.16 ng/μL of HDAC 3, 10 μM of the substrate and the compound in different concentrations. The fluorescence signal was detected online at Ex/Em=360/460. The inhibition effect of the compound was determined from the obtained data, a concentration response curve was obtained by using the inhibition effect and the concentration of the compound, and the value of IC50 was fitted according to a four-parameter model.
The activities of the compounds prepared in the embodiments against the histone deacetylases 1, 3 and 6 (i.e., HDAC 1, HDAC 3 and HDAC 6) were detected by the above methods, and the test results were shown in Table 2, where the measurements of IC50 of the compounds were classified according to the following description: […]

HCT-116 cells = assay: Cell growth inhibition measurement (CCK-8), HCT-116; type: cell-based; conditions: Homo sapiens, HCT-116, 72 h, highest EC50 measured during one or multiple operations, read-out: Inhibition activity against cancer cells, HCT-116 (EC50)
From the text: A HepG2 cell strain and an HCT-116 cell strain were purchased from Shanghai Institutes for Biological Sciences; a DMEM high-sugar culture medium and an MEM culture medium were purchased from Hyclone; fetal calf serum was purchased from Gibco; trypsin was purchased from Invitrogen Shanghai; a CCK-8 kit was purchased from Beyotime Institute of Biotechnology; and, the remaining cell culture mediums and other consumables were purchased from Corning China.
HepG2 cells and HCT-116 cells in the logarithmic growth phase were digested by trypsin. After the counting of uniform cell suspension, the cell density was adjusted as 1500 cells/well by a culture medium containing 10% serum. The cells were re-inoculated to a 96-well cell culture plate, and cultured to a volume of 200 μL at 37° C. in an incubator containing 5% CO2. The cells could be tested after being cultured for 24 h.
The cells cultured for 24 h were taken out from the incubator. The culture liquid in the well plate was sucked out, and 200 μL of compound solution prepared in the culture medium containing 10% fetal calf serum was added in each well. Five parallel mediums were provided for each concentration, and a DMSO culture medium was used as negative control. The culture mediums were cultured for 72 h at 37° C. in an incubator containing 5% CO2, and CCK-8 detection was performed.
A serum-free culture medium and CCK-8 solution were prepared, and CCK-8 working solution was prepared at a ratio of 10:1 (this process should be performed in dark place).
The cells cultured for 72 h were taken out from the incubator. The culture liquid in the well plate was sucked out, and 120 μL of the CCK-8 working solution was added in each well. A well plate without cells was also added with 120 μL of the CCK-8 working solution to serve as blank control. The well plates were cultured for 1 h at 37° C. in an incubator containing 5% CO2 (this process should be performed in dark place).
The well plates were taken out from the incubator, 100 μL of solution in each well was sucked out and added in a new 96-well plate, and the absorbance was measured at 450 nm (this process should be performed in dark place).
where Tx is the absorbance of the CCK-8 after the compound acts for 72 h;
C is the absorbance of the CCK-8 after the negative control wells are cultured for 72 h; and
B is the absorbance of the CCK-8 in the blank control wells.
The test results of the compounds prepared according to the embodiments during the measurement are shown in Table 3, wherein the measured highest EC50 of the compounds during one operation or multiple operations is classified according to the following description: […]

T1 sequence (O15379 whole entry): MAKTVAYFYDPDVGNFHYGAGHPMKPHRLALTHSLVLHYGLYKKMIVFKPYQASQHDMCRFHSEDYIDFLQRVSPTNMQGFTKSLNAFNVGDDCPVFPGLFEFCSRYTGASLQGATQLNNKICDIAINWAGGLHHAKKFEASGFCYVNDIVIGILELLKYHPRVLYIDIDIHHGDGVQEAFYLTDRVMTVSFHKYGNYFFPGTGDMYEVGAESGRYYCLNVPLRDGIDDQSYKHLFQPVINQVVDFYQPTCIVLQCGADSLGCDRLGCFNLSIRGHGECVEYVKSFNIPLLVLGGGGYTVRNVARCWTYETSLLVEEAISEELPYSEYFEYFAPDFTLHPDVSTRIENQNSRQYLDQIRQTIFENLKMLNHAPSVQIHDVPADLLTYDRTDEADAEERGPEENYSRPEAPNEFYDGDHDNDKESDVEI
T1 sequence (Q9Y618 395-489 partner limits assumed): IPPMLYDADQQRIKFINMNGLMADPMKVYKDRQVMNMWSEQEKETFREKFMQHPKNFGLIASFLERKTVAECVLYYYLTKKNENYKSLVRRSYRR

Compound: CN1CCN(c2ccc(-c3ccc(S(=O)(=O)N4CC=C(C(=O)NO)CC4)cc3)cc2)CC1 [Compound 29, N-hydroxyl-1-((4′-(4-methylpiperazinyl)-[1,1′-biphenyl]-4-yl)sulfonyl)-1,2,3,6-tetrahydropyridine-4-formamide]
- IC50 (HDAC 3): < 100 nM
- EC50 (HCT-116 cells): < 100 nM
